Tests used:
[1] = tested on: gram-positive and gram-negative bacteria; experiment: Disinfection properties overall (AOAC Use-Dilution); format: cell-based; settings: low concentration (e.g. 3%), pH 7
Protocol: (§1) The testing was performed in accordance with the protocols outlined in “Use-dilution Method”, Protocols 955.14, 955.15 and 964.02 described in Chapter 6 of “Official Methods of Analysis”, 16th Edition, of the Association of Official Analytical Chemists; “Germicidal and Detergent Sanitizing Action of Disinfectants”, 960.09 described in Chapter 6 of “Official Methods of Analysis”, 15th Edition, of the Association of Official Analytical Chemists; or American Society for Testing and Materials (ASTM) E 1054-91 the contents of which are herein incorporated by reference. This test is also commonly referred to as the “AOAC Use-Dilution Test Method”. Testing was conducted starting with 10^5 to 10^6 CFU/ml bacteria concentration, 10 ml of the cleaning composition described in each example and test protocol outlined in the “AOAC Use-dilution Method”.

P. aeruginosa = experiment: AOAC Use-Dilution disinfection test, P. aeruginosa; format: cell-based, Pseudomonas aeruginosa
Protocol: as §1

S. aureus = experiment: AOAC Use-Dilution disinfection test, S. aureus; format: cell-based, Staphylococcus aureus
Protocol: as §1

S. choleraesuis = experiment: AOAC Use-Dilution disinfection test, S. choleraesuis; format: cell-based, Salmonella choleraesuis
Protocol: as §1

[2] = pH 4.4, time 0 min (starting count)
[3] = pH 7.7, time 0 min (starting count)

Molecule | disinfectant property, in words [1] | P. aeruginosa (CFU/ml) (P. aeruginosa; [2]) | P. aeruginosa (CFU/ml) (P. aeruginosa; [3]) | killing gram positive bacteria (Staphylococus aureus), in words (S. aureus; acidic pH) | killing gram positive bacteria (Staphylococus aureus), in words (S. aureus; neutral pH) | S. aureus (CFU/ml) (S. aureus; [2]) | S. aureus (CFU/ml) (S. aureus; pH 4.4, time 5 min, average from two replicates) | S. aureus (CFU/ml) (S. aureus; [3]) | S. aureus (CFU/ml) (S. aureus; pH 7.7, time 5 min) | S. choleraesuis (CFU/ml) (S. choleraesuis; [2]) | S. choleraesuis (CFU/ml) (S. choleraesuis; [3])
CC(C)O [isopropanol, Isopropanol] | slight disinfectant property |  |  |  |  |  |  |  |  |  | 
hydrogen peroxide [3% H2O2] |  | 1.7 × 10^5 CFU/ml | 1.5 × 10^5 CFU/ml | not effective | not effective | 1.6 × 10^5 CFU/ml | 4.3 × 10^3 *^1 CFU/ml | 1.3 × 10^5 CFU/ml | 6.0 × 10^2 CFU/ml | 2.9 × 10^5 CFU/ml | 2.4 × 10^5 CFU/ml

Source: patent US20100055198A1, “HARD SURFACE CLEANING AND DISINFECTING COMPOSITION” (Arkema Inc., priority 2007, published 2010)
